Laboratory results: PubChem BioAssay (NCI)
Where “and” joins values, the source holds several entries; their conditions need not be identical. Equal entries are not always repeated.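 Test compounds were applied to cells in 96-well plates for 48 hours at 5 doses. GI50 = concentration required for 50% inhibition of growth. At the TGI there is no net growth.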

The compounds below were run on ACHN renal (assay: growth of human tumour cells (NCI), 48 h).
With `O=C1/C(=C\c2ccccc2)C2OCC=C3CN4CCC56c7ccccc7N1C5C2C3CC46` (centres undefined) the GI50 was 7.98 µM and the TGI was > 100 µM. `Cc1cc(Br)cc(C)c1NC(=O)C(=O)Nn1c(=S)[nH]c2ccccc2c1=O` was tested, and the TGI was > 100 µM. With `Cn1cc(-c2nc(N[C@@H]3CCCC[C@@H]3N)c(F)c3c2C(=O)NC3)cn1` the GI50 was 3.08 µM and 4.65 µM and the TGI was > 100 µM. Work on `Cc1cc2nc(-c3c(F)cccc3Cl)n(Cc3c(F)cccc3Cl)c2cc1C` yielded a GI50 of 14.5 µM and a TGI of 45.6 µM. In the case of `O=C(/C=C/c1ccco1)c1ccc(Nc2nc(Nc3ccc(F)cc3)nc(Nc3ccc(F)cc3)n2)cc1`, the GI50 is reported as > 100 µM and the TGI is reported as > 100 µM. For `O=C(NOCCO)c1cc(CN2OCCCC2=O)c(F)c(F)c1Nc1ccc(I)cc1F`, the GI50 was 4.28 µM and the TGI was > 100 µM. `Cc1cc2nc3c4ccc(Br)cc4n(CCN(C)C)c3nc2cc1C` gave a GI50 of 0.459 µM and a TGI of 2.23 µM. For `NNC(=O)C(O)C(O)C(=O)NN` (centres undefined), the TGI was > 100 µM. `O=C(/C=C/c1cccc2ccccc12)Nc1ncc(Cc2ccccc2)s1` showed a GI50 of 1.95 µM and a TGI of 6.02 µM. With `CCCN1CCC=C(c2ccc(Nc3nc(Nc4ccccc4C(N)=O)c4cc[nH]c4n3)c(C)c2)C1` the GI50 was 15.4 µM and the TGI was > 25 µM.

Each compound was assayed on HCC-2998 colon (assay: growth of human tumour cells (NCI), 48 h).
In the case of `O=C1/C(=C\c2ccccc2)C2OCC=C3CN4CCC56c7ccccc7N1C5C2C3CC46` (centres undefined), the GI50 is reported as 4.93 µM and the TGI is reported as > 100 µM. With `Cc1cc(Br)cc(C)c1NC(=O)C(=O)Nn1c(=S)[nH]c2ccccc2c1=O` the TGI was > 100 µM. For `Cn1cc(-c2nc(N[C@@H]3CCCC[C@@H]3N)c(F)c3c2C(=O)NC3)cn1`, the GI50 was 26.6 µM and 28.2 µM and the TGI was > 100 µM. For `Cc1cc2nc(-c3c(F)cccc3Cl)n(Cc3c(F)cccc3Cl)c2cc1C`, the GI50 was 11.2 µM and the TGI was 23.7 µM. For `O=C(/C=C/c1ccco1)c1ccc(Nc2nc(Nc3ccc(F)cc3)nc(Nc3ccc(F)cc3)n2)cc1`, the GI50 was 36 µM and the TGI was > 100 µM. With `O=C(NOCCO)c1cc(CN2OCCCC2=O)c(F)c(F)c1Nc1ccc(I)cc1F` the GI50 was < 0.0111 µM and 0.00172 µM. Work on `Cc1cc2nc3c4ccc(Br)cc4n(CCN(C)C)c3nc2cc1C` yielded a GI50 of 1.23 µM and a TGI of 2.74 µM. In the case of `NNC(=O)C(O)C(O)C(=O)NN` (centres undefined), the TGI is reported as > 100 µM. For `O=C(/C=C/c1cccc2ccccc12)Nc1ncc(Cc2ccccc2)s1`, the GI50 was 2.57 µM and the TGI was > 100 µM. In the case of `CCCN1CCC=C(c2ccc(Nc3nc(Nc4ccccc4C(N)=O)c4cc[nH]c4n3)c(C)c2)C1`, the GI50 is reported as 5.7 µM and the TGI is reported as > 25 µM.

What follows are compounds tested on MDA-MB-435 (assay: growth of human tumour cells (NCI), 48 h).
For `O=C1/C(=C\c2ccccc2)C2OCC=C3CN4CCC56c7ccccc7N1C5C2C3CC46` (centres undefined), the GI50 was 3.59 µM and the TGI was > 100 µM. `Cc1cc(Br)cc(C)c1NC(=O)C(=O)Nn1c(=S)[nH]c2ccccc2c1=O` was tested, and the TGI was > 100 µM. With `Cn1cc(-c2nc(N[C@@H]3CCCC[C@@H]3N)c(F)c3c2C(=O)NC3)cn1` the GI50 was 5.64 µM and 7.4 µM and the TGI was > 100 µM. With `Cc1cc2nc(-c3c(F)cccc3Cl)n(Cc3c(F)cccc3Cl)c2cc1C` the GI50 was 7.33 µM and the TGI was 22.7 µM. `O=C(/C=C/c1ccco1)c1ccc(Nc2nc(Nc3ccc(F)cc3)nc(Nc3ccc(F)cc3)n2)cc1` was tested, and the GI50 was 16.6 µM and the TGI was 74.4 µM. With `O=C(NOCCO)c1cc(CN2OCCCC2=O)c(F)c(F)c1Nc1ccc(I)cc1F` the GI50 was < 0.01 µM and 0.00879 µM and the TGI was 77.1 µM and > 10 µM. Work on `Cc1cc2nc3c4ccc(Br)cc4n(CCN(C)C)c3nc2cc1C` yielded a GI50 of 1.68 µM and a TGI of 3.04 µM. In the case of `NNC(=O)C(O)C(O)C(=O)NN` (centres undefined), the TGI is reported as > 100 µM. Compound `O=C(/C=C/c1cccc2ccccc12)Nc1ncc(Cc2ccccc2)s1` has a GI50 of 0.247 µM and a TGI of 0.725 µM. `CCCN1CCC=C(c2ccc(Nc3nc(Nc4ccccc4C(N)=O)c4cc[nH]c4n3)c(C)c2)C1` was tested, and the GI50 was 3.15 µM and the TGI was > 25 µM.

These compounds were tested on MOLT-4 leukemia (assay: growth of human tumour cells (NCI), 48 h).
With `O=C1/C(=C\c2ccccc2)C2OCC=C3CN4CCC56c7ccccc7N1C5C2C3CC46` (centres undefined) the GI50 was 7.23 µM and the TGI was > 100 µM. For `Cc1cc(Br)cc(C)c1NC(=O)C(=O)Nn1c(=S)[nH]c2ccccc2c1=O`, the TGI was > 100 µM. In the case of `Cn1cc(-c2nc(N[C@@H]3CCCC[C@@H]3N)c(F)c3c2C(=O)NC3)cn1`, the GI50 is reported as 4.74 µM and 6.87 µM and the TGI is reported as > 80.2 µM and 98.9 µM. In the case of `Cc1cc2nc(-c3c(F)cccc3Cl)n(Cc3c(F)cccc3Cl)c2cc1C`, the GI50 is reported as 30.4 µM and the TGI is reported as > 100 µM. `O=C(/C=C/c1ccco1)c1ccc(Nc2nc(Nc3ccc(F)cc3)nc(Nc3ccc(F)cc3)n2)cc1` showed a GI50 of 11.9 µM and a TGI of 48.8 µM. In the case of `O=C(NOCCO)c1cc(CN2OCCCC2=O)c(F)c(F)c1Nc1ccc(I)cc1F`, the GI50 is reported as 38.2 µM and > 10 µM and the TGI is reported as > 100 µM. `Cc1cc2nc3c4ccc(Br)cc4n(CCN(C)C)c3nc2cc1C` gave a GI50 of 0.412 µM and a TGI of 5.62 µM. In the case of `NNC(=O)C(O)C(O)C(=O)NN` (centres undefined), the TGI is reported as > 100 µM. `O=C(/C=C/c1cccc2ccccc12)Nc1ncc(Cc2ccccc2)s1` was tested, and the GI50 was 1.65 µM and the TGI was > 100 µM. For `CCCN1CCC=C(c2ccc(Nc3nc(Nc4ccccc4C(N)=O)c4cc[nH]c4n3)c(C)c2)C1`, the GI50 was 7.79 µM and the TGI was > 21 µM.

These compounds were tested on NCI-H23 lung (assay: growth of human tumour cells (NCI), 48 h).
With `O=C1/C(=C\c2ccccc2)C2OCC=C3CN4CCC56c7ccccc7N1C5C2C3CC46` (centres undefined) the GI50 was > 100 µM and the TGI was > 100 µM. In the case of `Cc1cc(Br)cc(C)c1NC(=O)C(=O)Nn1c(=S)[nH]c2ccccc2c1=O`, the TGI is reported as > 100 µM. With `Cn1cc(-c2nc(N[C@@H]3CCCC[C@@H]3N)c(F)c3c2C(=O)NC3)cn1` the GI50 was 5.58 µM and 5.83 µM and the TGI was 48.7 µM and > 63.7 µM. `Cc1cc2nc(-c3c(F)cccc3Cl)n(Cc3c(F)cccc3Cl)c2cc1C` showed a GI50 of 9.49 µM and a TGI of 22.9 µM. For `O=C(/C=C/c1ccco1)c1ccc(Nc2nc(Nc3ccc(F)cc3)nc(Nc3ccc(F)cc3)n2)cc1`, the GI50 was 16.4 µM and the TGI was 37 µM. For `O=C(NOCCO)c1cc(CN2OCCCC2=O)c(F)c(F)c1Nc1ccc(I)cc1F`, the GI50 was < 0.0222 µM and 0.0545 µM and the TGI was 26.5 µM and > 10 µM. `Cc1cc2nc3c4ccc(Br)cc4n(CCN(C)C)c3nc2cc1C` was tested, and the GI50 was 1.5 µM and the TGI was 3.47 µM. With `NNC(=O)C(O)C(O)C(=O)NN` (centres undefined) the TGI was > 100 µM. In the case of `O=C(/C=C/c1cccc2ccccc12)Nc1ncc(Cc2ccccc2)s1`, the GI50 is reported as 1.58 µM and the TGI is reported as > 100 µM. For `CCCN1CCC=C(c2ccc(Nc3nc(Nc4ccccc4C(N)=O)c4cc[nH]c4n3)c(C)c2)C1`, the GI50 was 8.16 µM and the TGI was > 25 µM.
